# Values of other authors as cited in patent US20110305778A1, “Chemically Stabilized Anti-Dandruff Compositions For Use In Personal Care Compositions” (priority 2010, published 2011).
# Settings: value in parenthesis after each coordinating compound; no method given
row,Compound,Log Zn Binding Constant
1,Cc1cc(C2(c3cc(C)c(O)c(CN(CC(=O)O)CC(=O)O)c3)OS(=O)(=O)c3ccccc32)cc(CN(CC(=O)O)CC(=O)O)c1O [Xylenol Orange],10.3
2,O=S(=O)(O)O [Sulfuric Acid],0.9
3,N=C(N)NCCC[C@H](N)C(=O)O [Arginine],4.2
4,CSCC[C@H](N)C(=O)O [Methionine],4.4
5,Cl [Chloride],−0.3
6,O=P(O)(O)O [Phosphoric Acid],2.4
7,CC(=O)O [Acetic Acid],1.0
8,O=C(O)O [Carbonic Acid],3.9
9,O=CO [Formic Acid],0.6
10,OB(O)O [Boric Acid],0.9
11,CC(O)C(=O)O (stereo not shown) [Lactic Acid],1.9
12,N[C@@H](CS)C(=O)O [Cysteine],9.1

# Results, then the molecule that gave them:
row,Log Zn Binding Constant,Compound
1,2.2,O=C(O)c1ccccc1C(=O)O [Phthalic Acid]
2,6.7,N[C@@H](CSSC[C@H](N)C(=O)O)C(=O)O [Cystine]
3,4.8,O=C(O)CC(O)(CC(=O)O)C(=O)O [Citric Acid]
4,13.5,O=C(O)C[C@H](NCCN[C@@H](CC(=O)O)C(=O)O)C(=O)O [EDDS]
5,11.1,O=C(O)CNCCNCC(=O)O [EDDA]
6,16.5,O=C(O)CN(CCN(CC(=O)O)CC(=O)O)CC(=O)O [EDTA]
7,2.9,O=C(O)CC(O)C(=O)O (stereo not shown) [Malic Acid]
8,10.7,O=C(O)CN(CC(=O)O)CC(=O)O [NTA]
9,5.0,NCC(=O)O [Glycine]
10,4.5,N[C@@H](CCC(=O)O)C(=O)O [Glutamic Acid]
11,2.0,O=C(O)CO [Glycolic Acid]
12,3.2,O=C(O)C(O)C(=O)O [Tatronic Acid]
13,2.6,O=C(O)CCCCC(=O)O [Adipic Acid]
14,2.9,O=C(O)CC(=O)O [Malonic Acid]
15,1.8,O=C(O)CCC(=O)O [Succinic Acid]
16,5.9,N[C@@H](CC(=O)O)C(=O)O [Aspartic Acid]
